Reference: US12594276B2, “Inhibitors of human immunodeficiency virus replication” (ViiV Healthcare UK (No.5) Limited, priority 2024, dated 2026)

Columns and labels:
[1] = Compound cytotoxicity, XTT-based colorimetric assay; assay type: cell-based; details: human; uninfected MT2 cells, day 4, XTT; read-out: CC50
Method in brief: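 Uninfected MT2 cells were treated with compound under the same protocol as the antiviral assay. Viability was read on day 4 with an XTT colorimetric assay, from which CC50 values were derived.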

[2] = test system: recombinant NL4-3 virus (nef section replaced with Renilla luciferase gene) in MT-2 cells; test: HIV cell culture assay (antiviral activity, luciferase readout); assay type: cell-based; details: Renilla, NL43, MT-2 cells infected for 4-5 days with recombinant NL4-3 Renilla luciferase virus
Method in brief: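 EC50 was derived by median-effect fitting of Renilla luciferase signal from MT-2 cells. These cells were infected for 4–5 days with NL4-3 reporter virus (nef partly replaced by luciferase; made in 293T cells) in the presence of serially diluted compound. Activity was quantified with a live-cell luciferase substrate.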

SMILES	CC50 at 4 days [1] [nM]	EC50 [2] [nM]
Cc1cc(C2CCC(F)(F)CC2)nc2nc([C@H](Cc3cc(F)cc(F)c3)NC(=O)Cn3nc(C4CC4)c4c3C[C@@H]3C[C@H]43)n(-c3ccc(Cl)c4c(NS(C)(=O)=O)nn(CCN5CCCCC5)c34)c(=O)c12 (atropisomer, axis not shown; (P)) [Example 276, N-[(1S)-1-[(3P)-3-{4-chloro-3-methanesulfonamido-1-[2-(piperidin-1-yl)ethyl]-1H-indazol-7-yl}-7-(4,4-difluorocyclohexyl)-5-methyl-4-oxo-3H,4H-pyrido[2,3-d]pyrimidin-2-yl]-2-(3,5-difluorophenyl)ethyl]-2-[(2S,4S)-9-cyclopropyl-7,8-diazatricyclo[4.3.0.0^2,^4]nona-1(6),8-dien-7-yl]acetamide]	> 50	0.016
Cc1cc(C2CCC(F)(F)CC2)nc2nc([C@H](Cc3cc(F)cc(F)c3)NC(=O)Cn3nc(C(F)F)c4c3C(F)(F)[C@@H]3C[C@H]43)n(-c3ccc(Cl)c4c(NS(C)(=O)=O)nn(CCN5CCC(F)CC5)c34)c(=O)c12 (atropisomer, axis not shown; (P)) [Example 270, N-[(1S)-1-[(3P)-3-{4-chloro-1-[2-(4-fluoropiperidin-1-yl)ethyl]-3-methanesulfonamido-1H-indazol-7-yl}-7-(4,4-difluorocyclohexyl)-5-methyl-4-oxo-3H,4H-pyrido[2,3-d]pyrimidin-2-yl]-2-(3,5-difluorophenyl)ethyl]-2-[(2S,4R)-9-(difluoromethyl)-5,5-difluoro-7,8-diazatricyclo[4.3.0.0^2,^4]nona-1(6),8-dien-7-yl]acetamide]	> 50	0.011
CS(=O)(=O)Nc1nn(CCN2CC(F)(F)C2)c2c(-n3c([C@H](Cc4cc(F)cc(F)c4)NC(=O)Cn4nc(C(F)F)c5c4C(F)(F)[C@@H]4C[C@H]54)nc4nc(C5CCC(F)(F)CC5)ccc4c3=O)ccc(Cl)c12 (atropisomer, axis not shown; (P)) [Example 48, N-[(1S)-1-[(3P)-3-{4-chloro-1-[2-(3,3-difluoroazetidin-1-yl)ethyl]-3-methanesulfonamido-1H-indazol-7-yl}-7-(4,4-difluorocyclohexyl)-4-oxo-3H,4H-pyrido[2,3-d]pyrimidin-2-yl]-2-(3,5-difluorophenyl)ethyl]-2-[(2S,4R)-9-(difluoromethyl)-5,5-difluoro-7,8-diazatricyclo[4.3.0.0^2,^4]nona-1(6),8-dien-7-yl]acetamide]	> 50	0.018
CS(=O)(=O)Nc1nn(CCN2CC[C@H](F)C2)c2c(-n3c([C@H](Cc4cc(F)cc(F)c4)NC(=O)Cn4nc(C(F)F)c5c4C(F)(F)[C@@H]4C[C@H]54)nc4nc(C5CCC(F)(F)CC5)ccc4c3=O)ccc(Cl)c12 (atropisomer, axis not shown; (P)) [Example 207, N-[(1S)-1-[(3P)-3-(4-chloro-1-{2-[(3S)-3-fluoropyrrolidin-1-yl]ethyl}-3-methanesulfonamido-1H-indazol-7-yl)-7-(4,4-difluorocyclohexyl)-4-oxo-3H,4H-pyrido[2,3-d]pyrimidin-2-yl]-2-(3,5-difluorophenyl)ethyl]-2-[(2S,4R)-9-(difluoromethyl)-5,5-difluoro-7,8-diazatricyclo[4.3.0.0^2,^4]nona-1(6),8-dien-7-yl]acetamide]	> 50	0.013
CS(=O)(=O)Nc1nn(CCN2C[C@H](F)C[C@H](F)C2)c2c(-n3c([C@H](Cc4cc(F)cc(F)c4)NC(=O)Cn4nc(C(F)F)c5c4C(F)(F)[C@@H]4C[C@H]54)nc4nc(C5CCC(F)(F)CC5)cc(C(F)F)c4c3=O)ccc(Cl)c12 (atropisomer, axis not shown; (P)) [Example 291, N-[(1S)-1-[(3P)-3-(4-chloro-1-{2-[(3R,5S)-3,5-difluoropiperidin-1-yl]ethyl}-3-methanesulfonamido-1H-indazol-7-yl)-7-(4,4-difluorocyclohexyl)-5-(difluoromethyl)-4-oxo-3H,4H-pyrido[2,3-d]pyrimidin-2-yl]-2-(3,5-difluorophenyl)ethyl]-2-[(2S,4R)-9-(difluoromethyl)-5,5-difluoro-7,8-diazatricyclo[4.3.0.0^2,^4]nona-1(6),8-dien-7-yl]acetamide]	> 50	0.012
Cc1cc(C2(F)CCC(F)(F)CC2)nc2nc([C@H](Cc3cc(F)cc(F)c3)NC(=O)Cn3nc(C(F)F)c4c3C(F)(F)[C@@H]3C[C@H]43)n(-c3ccc(Cl)c4c(NS(C)(=O)=O)nn(CCN5CCOC(C)(C)C5)c34)c(=O)c12 (atropisomer, axis not shown; (P)) [Example 578, N-[(1S)-1-[(3P)-3-{4-chloro-1-[2-(2,2-dimethylmorpholin-4-yl)ethyl]-3-methanesulfonamido-1H-indazol-7-yl}-5-methyl-4-oxo-7-(1,4,4-trifluorocyclohexyl)-3H,4H-pyrido[2,3-d]pyrimidin-2-yl]-2-(3,5-difluorophenyl)ethyl]-2-[(2S,4R)-9-(difluoromethyl)-5,5-difluoro-7,8-diazatricyclo[4.3.0.0^2,^4]nona-1(6),8-dien-7-yl]acetamide]	> 20	0.008
CCc1cc(C2CCC(F)(F)CC2)nc2nc([C@H](Cc3cc(F)cc(F)c3)NC(=O)Cn3nc(C(F)(F)F)c4c3C[C@H]3C[C@@H]43)n(-c3ccc(Cl)c4c(NS(C)(=O)=O)nn(CCCOC)c34)c(=O)c12 (relative stereo) [Example 641, N-[(1S)-1-[(3P)-3-[4-chloro-3-methanesulfonamido-1-(3-methoxypropyl)-1H-indazol-7-yl]-7-(4,4-difluorocyclohexyl)-5-ethyl-4-oxo-3H,4H-pyrido[2,3-d]pyrimidin-2-yl]-2-(3,5-difluorophenyl)ethyl]-2-[(2R*,4R*)-9-(trifluoromethyl)-7,8-diazatricyclo[4.3.0.0^2,^4]nona-1(6),8-dien-7-yl]acetamide]	> 50	0.029
CC1(C)CN(CCn2nc(NS(C)(=O)=O)c3c(Cl)ccc(-n4c([C@H](Cc5cc(F)cc(F)c5)NC(=O)Cn5nc(C6CC6)c6c5C[C@@H]5C[C@H]65)nc5nc(C6CCC(F)(F)CC6)ccc5c4=O)c32)CC(C)(C)O1 (atropisomer, axis not shown; (P)) [Example 424, N-[(1S)-1-[(3P)-3-{4-chloro-3-methanesulfonamido-1-[2-(2,2,6,6-tetramethylmorpholin-4-yl)ethyl]-1H-indazol-7-yl}-7-(4,4-difluorocyclohexyl)-4-oxo-3H,4H-pyrido[2,3-d]pyrimidin-2-yl]-2-(3,5-difluorophenyl)ethyl]-2-[(2S,4S)-9-cyclopropyl-7,8-diazatricyclo[4.3.0.0^2,^4]nona-1(6),8-dien-7-yl]acetamide]	> 20	0.012
CS(=O)(=O)Nc1nn(CCN2CC[C@](F)(C(F)(F)F)C2)c2c(-n3c([C@H](Cc4cc(F)cc(F)c4)NC(=O)Cn4nc(C(F)F)c5c4C(F)(F)[C@@H]4C[C@H]54)nc4nc(C5CCC(F)(F)CC5)ccc4c3=O)ccc(Cl)c12 (atropisomer, axis not shown; (P)) [Example 41]	> 50	0.015
CS(=O)(=O)Nc1nn(CCN(CCC(F)(F)F)CCC(F)(F)F)c2c(-n3c([C@H](Cc4cc(F)cc(F)c4)NC(=O)Cn4nc(C(F)F)c5c4C(F)(F)[C@@H]4C[C@H]54)nc4nc(C5CCC(F)(F)CC5)ccc4c3=O)ccc(Cl)c12 (atropisomer, axis not shown; (P)) [Example 671, N-[(1S)-1-[(3P)-3-(1-{2-[bis(3,3,3-trifluoropropyl)amino]ethyl}-4-chloro-3-methanesulfonamido-1H-indazol-7-yl)-7-(4,4-difluorocyclohexyl)-4-oxo-3H,4H-pyrido[2,3-d]pyrimidin-2-yl]-2-(3,5-difluorophenyl)ethyl]-2-[(2S,4R)-9-(difluoromethyl)-5,5-difluoro-7,8-diazatricyclo[4.3.0.0^2,^4]nona-1(6),8-dien-7-yl]acetamide]	> 20	0.027
COCCCn1nc(NS(C)(=O)=O)c2c(Cl)ccc(-n3c([C@H](Cc4cc(F)cc(F)c4)NC(=O)Cn4nc(C(F)F)c5c4C(F)(F)[C@@H]4C[C@H]54)nc4nc(C5CCC(F)(F)CC5)cc(NC[C@H]5CCOC5)c4c3=O)c21 (atropisomer, axis not shown; (P)) [Example 567, N-[(1S)-1-[(3P)-3-[4-chloro-3-methanesulfonamido-1-(3-methoxypropyl)-1H-indazol-7-yl]-7-(4,4-difluorocyclohexyl)-4-oxo-5-({[(3R)-oxolan-3-yl]methyl}amino)-3H,4H-pyrido[2,3-d]pyrimidin-2-yl]-2-(3,5-difluorophenyl)ethyl]-2-[(2S,4R)-9-(difluoromethyl)-5,5-difluoro-7,8-diazatricyclo[4.3.0.0^2,^4]nona-1(6),8-dien-7-yl]acetamide]	> 20	0.009
CS(=O)(=O)Nc1nn(CCN2CCC(F)(F)CC2)c2c(-n3c([C@H](Cc4cc(F)cc(F)c4)NC(=O)Cn4nc(C(F)F)c5c4C(F)(F)[C@@H]4C[C@H]54)nc4nc(C5CCC(F)(F)CC5)cc(C5CC5)c4c3=O)ccc(Cl)c12 (atropisomer, axis not shown; (P)) [Example 321, N-[(1S)-1-[(3P)-3-{4-chloro-1-[2-(4,4-difluoropiperidin-1-yl)ethyl]-3-methanesulfonamido-1H-indazol-7-yl}-5-cyclopropyl-7-(4,4-difluorocyclohexyl)-4-oxo-3H,4H-pyrido[2,3-d]pyrimidin-2-yl]-2-(3,5-difluorophenyl)ethyl]-2-[(2S,4R)-9-(difluoromethyl)-5,5-difluoro-7,8-diazatricyclo[4.3.0.0^2,^4]nona-1(6),8-dien-7-yl]acetamide]	> 50	0.02
